Values joined by “and” are separate entries in the source; they are usually repeats but may differ in a detail not shown here. Equal entries are not always repeated.
Biological target: SARS-CoV-2 Main Protease (SARS-CoV-2) (UniProt P0DTD1)

Point of comparison: `O=C(Nc1cncc2c1CCCC2)[C@H]1CNS(=O)(=O)c2ccc(Cl)cc21` (stereo in doubt), IC50 0.723 µM. Against it:
- CNC(=O)CN1CC(C)(C(=O)Nc2cncc3cc(Cl)ccc23)c2cc(Cl)ccc2S1(=O)=O (stereo not drawn) — 1.8-fold lower, 0.393 µM
- C[C@H]1CN(C(=O)OC(C)(C)C)CCN1c1cc(Cl)cc(CC(=O)Nc2cncc3ccccc23)c1 (stereo in doubt) — 3-fold higher, 2.19 µM
- O=C(Cc1cc(Cl)cc(Nc2ccccc2)c1)Nc1cncc2ccccc12 — higher, > 9.95 µM
- CC(C)CN1CC(C)(C(=O)Nc2cncc3ccccc23)c2cc(Cl)ccc2S1(=O)=O (stereo not drawn) — 4.7-fold lower, 0.153 µM
- CN(C)c1ccc(C(Cc2ccsc2)C(=O)Nc2nnc3ccccn23)cc1 (stereo not drawn) — higher, > 99.5 µM
- NC(=O)c1ccncc1NC(=O)Cc1cccc(Cl)c1 — higher, > 99.5 µM
- CN1CCN(c2ncc(C(C(=O)NCCc3cccc(F)c3)N(C(=O)c3cocn3)c3ccc(C(C)(C)C)cc3)cn2)CC1 (stereo not drawn) — higher, > 99.5 µM
- N#CCC1(CS(=O)(=O)N2Cc3ccc(Cl)cc3C3(CCN(c4cncc5ccccc45)C3=O)C2)CC1 (stereo not drawn) — 2.1-fold lower, 0.337 µM
- O=C(Cc1cc(Cl)cc(CC2CC(=O)N2)c1)Nc1cncc2ccccc12 (stereo not drawn) — 6.3-fold higher, 4.57 µM
- C=CC(=O)N(Cc1ccccc1Cl)C(C(=O)NC)c1cccnc1 (stereo not drawn) — higher, > 99.5 µM
- CC(C)(C)c1ccc(N(C(=O)c2cnco2)C(C(=O)NCCc2cccc(F)c2)c2cccnc2)cc1 (stereo not drawn) — 6.6-fold higher, 4.78 µM
- O=C(Nc1cncc2ccncc12)[C@H]1CCOc2cc(F)c(Cl)cc21 (stereo in doubt) — higher, > 99.5 µM
- Cc1c(Cl)cc(S(=O)(=O)N2CC=C(c3c[nH]c4ncccc34)CC2)cc1[N+](=O)[O-] — higher, > 99.5 µM
- CC(C)(C)c1cnc(N(C(=O)c2cocn2)C(C(=O)NCCc2cccc(F)c2)c2cccnc2)o1 (stereo not drawn) — 45-fold higher, 32.4 µM
- Nc1nn(C(=O)Cc2cccc(Cl)c2)c2cc(F)ccc12 — higher, > 99.5 µM
- O=C(NCc1nnc2c(=O)[nH]ccn12)c1ccnc2ccnn12 — higher, > 99.5 µM
- N#Cc1cnn(-c2ccc([N+](=O)[O-])cc2)c1Nc1cc(Cl)cc(CC(=O)Nc2cncc3ccccc23)c1 — 2.5-fold higher, 1.84 µM
- O=C(CCl)N1CCCc2cc(NCc3ccc(F)cc3Cl)ccc21 — 27-fold higher, 19.3 µM
- COc1cc(CNc2cc(Cl)cc(CC(=O)Nc3cncc4ccccc34)c2)ccc1O — 2.6-fold higher, 1.88 µM
- CC(NC(=O)c1ccc2oc(=S)[nH]c2c1)c1nnc2ccccn12 (stereo not drawn) — higher, > 99.5 µM
- O=C(OCC(=O)N1CCC(Cc2ccccc2)CC1)c1cc(=O)[nH]c(=O)[nH]1 — higher, > 99.5 µM
- O=C(Nc1ccc2ccccc2c1)[C@@H]1CN(C(=O)CCl)CCN1S(=O)(=O)c1ccsc1 (stereo in doubt) — within 1.5-fold, 0.523 µM
- Cc1nc2cc(C(=O)NNc3nc4ccncc4s3)ccc2o1 — higher, > 99.5 µM
- O=C(Nc1cncc2ccccc12)C1CN(S(=O)(=O)CC2CC2)Cc2ccc(Cl)cc21 (stereo not drawn) — 4.3-fold lower, 0.168 µM
- O=C(CCl)N1CCN(Cc2cnc(Cc3ccccc3)s2)CC1 — 41-fold higher, 29.8 µM
- O=C(Cc1cccc(Cl)c1)Nc1cncc2cc(OCC(F)(F)F)ccc12 — higher, > 99.5 µM
- Cc1cccc(C2CN(C(=O)CCl)Cc3ccccc32)c1 (stereo not drawn) — 2.8-fold higher, 2 µM
- O=C(NCCc1cccc(F)c1)C(c1cccnc1)N(Cc1ccccc1C1CCC1)C(=O)c1ccco1 (stereo not drawn) — 2.7-fold higher, 1.93 µM
- COc1ccccc1OCCNC(=O)c1cc(=O)cc[nH]1 — higher, > 99.5 µM
- O=C(Cc1cc(Cl)cc(Nc2ncc(Br)nc2Cl)c1)Nc1cncc2ccccc12 — 2.4-fold higher, 1.71 µM
- O=C(NCCc1cccc(F)c1)C(c1cccnc1)N(C(=O)c1cocn1)C1COc2cc(F)ccc21 (stereo not drawn) — higher, > 99.5 µM
- CN(C)S(=O)(=O)c1cccc(C(=O)Nc2c(-c3ccccc3)nc3sccn23)c1 — within 1.5-fold, 0.975 µM
- O=C(Cc1cc(Cl)cc(Nc2cccc(Br)c2)c1)Nc1cncc2ccccc12 — 2.9-fold higher, 2.07 µM
- COCc1ccc(N(C(=O)c2cnc[nH]2)C(C(=O)NCCc2cccc(F)c2)c2cccnc2)cc1 (stereo not drawn) — 87-fold higher, 62.9 µM
- O=C(Cc1cccc(Cl)c1)Nc1c[nH]c2ccccc12 — higher, > 99.5 µM
- CC1(CS(=O)(=O)N2Cc3ccc(Cl)cc3C(C(=O)Nc3cncc4ccccc34)C2)CC1 (stereo not drawn) — 7.4-fold lower, 0.098 µM
- O=C(Cc1cc(Cl)ccc1Cl)Nc1cncc2ccccc12 — within 1.5-fold, 1.02 µM
- O=C(/C=C/c1ccccc1)N1CCN(S(=O)(=O)c2cccc(F)c2)CC1 — higher, > 99.5 µM
- Cc1ncc(CN2Cc3ccc(Cl)cc3C(C(=O)Nc3cncc4ccc(F)cc34)C2)[nH]1 (stereo not drawn) — 2.4-fold lower, 0.307 µM
- CC(=O)NC(C(=O)Nc1cncc2ccccc12)c1ccc(Cl)c(Cl)c1 (stereo not drawn) — 5.6-fold higher, 4.05 µM
- N#CC1(CS(=O)(=O)N2Cc3ccc(Cl)cc3C3(CCN(c4cncc5ccc(F)cc45)C3=O)C2)CC1 (stereo not drawn) — within 1.5-fold, 0.828 µM
- O=C(Nn1cnc2ccccc21)C(Cc1cccc(Cl)c1)c1ccc(N2CCOCC2)cc1 (stereo not drawn) — higher, > 99.5 µM
- CNC(=O)CN1C[C@@H](C(=O)Nc2cncc3cccc(Cl)c23)c2cc(Cl)ccc2C1=O (stereo in doubt) — 20-fold higher, 14.6 µM

`N#CC1(CS(=O)(=O)N2Cc3ccc(Cl)cc3[C@H](C(=O)Nc3cncc4ccccc34)C2)CNC1` (stereo in doubt) was tested, and the IC50 was 0.0562 µM and 0.0849 µM.
`N#CC1(CS(=O)(=O)N2Cc3ccc(Cl)cc3C(C(=O)Nc3cncc4ccccc34)C2)CCCC1` (stereo not drawn) was tested, and the IC50 was 0.079 µM and 0.0884 µM.
For `O=C(CC1(C(=O)Nc2cncc3ccccc23)CCOc2ccc(Cl)cc21)N1CCOCC1CC(F)F` (stereo not drawn), the IC50 was 7.68 µM and 12.6 µM.
In the case of `CC(C)C[C@H]1CN(C(=O)CCl)CCN1Cc1cccc(Cl)c1` (stereo in doubt), the IC50 is reported as 0.759 µM and 0.641 µM.

— the COVID Moonshot data (paper PMC7615835)
